Data as given in PubChem BioAssay (NCI).
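Cells were grown in 96-well plates and exposed to each compound for 48 hours at five concentrations; endpoints were interpolated linearly between bracketing concentrations, or set to the highest concentration if not reached. Definition used: TGI = concentration required for complete inhibition of growth.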

Tests used:
Experiment in all cases: DTP human tumour cell line panel, 48 h
786-0 renal = system: 786-0 renal
A498 renal = system: A498 renal
A549 NSCLC = system: A549 NSCLC
ACHN renal = system: ACHN renal
BT-549 breast = system: BT-549 breast
CAKI-1 renal = system: CAKI-1 renal
COLO 205 colon = system: COLO 205 colon
DU-145 prostate = system: DU-145 prostate
EKVX NSCLC = system: EKVX NSCLC
HCC-2998 colon = system: HCC-2998 colon
HCT-116 colon = system: HCT-116 colon
HCT-15 colon = system: HCT-15 colon
HL-60(TB) leukemia = system: HL-60(TB) leukemia
HOP-62 NSCLC = system: HOP-62 NSCLC
HOP-92 NSCLC = system: HOP-92 NSCLC
HS 578T breast = system: HS 578T breast
HT29 colon = system: HT29 colon
IGROV1 ovarian = system: IGROV1 ovarian
K-562 leukemia = system: K-562 leukemia
KM12 colon = system: KM12 colon
LOX IMVI melanoma = system: LOX IMVI melanoma
M14 melanoma = system: M14 melanoma
MALME-3M melanoma = system: MALME-3M melanoma
MCF7 breast = system: MCF7 breast
MDA-MB-231 breast = system: MDA-MB-231 breast
MDA-MB-435 = system: MDA-MB-435
MDA-N = system: MDA-N
MOLT-4 leukemia = system: MOLT-4 leukemia
NCI-H226 lung = system: NCI-H226 lung
NCI-H23 lung = system: NCI-H23 lung
NCI-H460 lung = system: NCI-H460 lung
NCI-H522 lung = system: NCI-H522 lung
NCI/ADR-RES ovarian = system: NCI/ADR-RES ovarian
OVCAR-3 ovarian = system: OVCAR-3 ovarian
OVCAR-4 ovarian = system: OVCAR-4 ovarian
OVCAR-5 ovarian = system: OVCAR-5 ovarian
OVCAR-8 ovarian = system: OVCAR-8 ovarian
PC-3 prostate = system: PC-3 prostate
RPMI-8226 leukemia = system: RPMI-8226 leukemia
RXF 393 renal = system: RXF 393 renal
SF-268 CNS = system: SF-268 CNS
SF-295 CNS = system: SF-295 CNS
SF-539 CNS = system: SF-539 CNS
SK-MEL-2 melanoma = system: SK-MEL-2 melanoma
SK-MEL-28 melanoma = system: SK-MEL-28 melanoma
SK-MEL-5 melanoma = system: SK-MEL-5 melanoma
SK-OV-3 ovarian = system: SK-OV-3 ovarian
SN12C renal = system: SN12C renal
SNB-19 CNS = system: SNB-19 CNS
SNB-75 CNS = system: SNB-75 CNS
SR leukemia = system: SR leukemia
SW-620 colon = system: SW-620 colon
T-47D breast = system: T-47D breast
TK-10 renal = system: TK-10 renal
U251 CNS = system: U251 CNS
UACC-257 melanoma = system: UACC-257 melanoma
UACC-62 melanoma = system: UACC-62 melanoma
UO-31 renal = system: UO-31 renal

Measured: TGI

O=C(Oc1cccc2cccnc12)c1cc2cc(CCl)ccc2oc1=O
42.8 µM: NCI-H23 lung
6.38 µM: EKVX NSCLC
85.5 µM: CAKI-1 renal
72.2 µM: UO-31 renal
88.4 µM: M14 melanoma | U251 CNS
13.8 µM: HCT-116 colon
39.7 µM: MALME-3M melanoma
54.5 µM: T-47D breast
24.2 µM: HCT-15 colon
46.7 µM: 786-0 renal
89.4 µM: MDA-MB-231 breast
50.6 µM: HCC-2998 colon
79.8 µM: SK-MEL-2 melanoma
54.4 µM: SN12C renal
36.8 µM: UACC-62 melanoma
49.6 µM: RXF 393 renal
39.9 µM: COLO 205 colon
31.3 µM: PC-3 prostate
77.4 µM: HL-60(TB) leukemia
11.4 µM: MCF7 breast
> 100 µM: A498 renal | A549 NSCLC | ACHN renal | BT-549 breast | DU-145 prostate | HOP-62 NSCLC | HOP-92 NSCLC | HS 578T breast | IGROV1 ovarian | K-562 leukemia | KM12 colon | LOX IMVI melanoma | MDA-MB-435 | MDA-N | MOLT-4 leukemia | NCI-H226 lung | NCI/ADR-RES ovarian | OVCAR-3 ovarian | OVCAR-4 ovarian | OVCAR-5 ovarian | OVCAR-8 ovarian | RPMI-8226 leukemia | SF-295 CNS | SF-539 CNS | SK-MEL-28 melanoma | SK-MEL-5 melanoma | SK-OV-3 ovarian | SNB-19 CNS | SNB-75 CNS | SR leukemia | SW-620 colon | TK-10 renal | UACC-257 melanoma
33 µM: HT29 colon
40.9 µM: NCI-H460 lung
52.7 µM: SF-268 CNS
8.87 µM: NCI-H522 lung

COC(=O)/C(C#N)=C(\Nc1ccccc1)N1CCCC1
> 100 µM: 786-0 renal | A498 renal | A549 NSCLC | ACHN renal | BT-549 breast | CAKI-1 renal | COLO 205 colon | DU-145 prostate | EKVX NSCLC | HCC-2998 colon | HCT-116 colon | HCT-15 colon | HL-60(TB) leukemia | HOP-62 NSCLC | HOP-92 NSCLC | HS 578T breast | HT29 colon | IGROV1 ovarian | K-562 leukemia | LOX IMVI melanoma | M14 melanoma | MALME-3M melanoma | MCF7 breast | MDA-MB-231 breast | MDA-MB-435 | MDA-N | MOLT-4 leukemia | NCI-H226 lung | NCI-H23 lung | NCI-H460 lung | NCI-H522 lung | NCI/ADR-RES ovarian | OVCAR-3 ovarian | OVCAR-4 ovarian | OVCAR-5 ovarian | OVCAR-8 ovarian | PC-3 prostate | RPMI-8226 leukemia | RXF 393 renal | SF-268 CNS | SF-295 CNS | SF-539 CNS | SK-MEL-2 melanoma | SK-MEL-28 melanoma | SK-MEL-5 melanoma | SK-OV-3 ovarian | SN12C renal | SNB-19 CNS | SNB-75 CNS | SR leukemia | SW-620 colon | T-47D breast | TK-10 renal | U251 CNS | UACC-257 melanoma | UO-31 renal

N#CCCN(CCC#N)CCN(CCN(CCC#N)CCC#N)CCN(CCC#N)CCC#N
> 100 µM: 786-0 renal | A498 renal | A549 NSCLC | ACHN renal | BT-549 breast | CAKI-1 renal | COLO 205 colon | DU-145 prostate | EKVX NSCLC | HCC-2998 colon | HCT-116 colon | HCT-15 colon | HL-60(TB) leukemia | HOP-62 NSCLC | HOP-92 NSCLC | HS 578T breast | HT29 colon | IGROV1 ovarian | K-562 leukemia | LOX IMVI melanoma | M14 melanoma | MALME-3M melanoma | MCF7 breast | MDA-MB-231 breast | MDA-MB-435 | MDA-N | MOLT-4 leukemia | NCI-H226 lung | NCI-H23 lung | NCI-H460 lung | NCI-H522 lung | NCI/ADR-RES ovarian | OVCAR-3 ovarian | OVCAR-4 ovarian | OVCAR-5 ovarian | OVCAR-8 ovarian | PC-3 prostate | RPMI-8226 leukemia | RXF 393 renal | SF-268 CNS | SF-295 CNS | SF-539 CNS | SK-MEL-2 melanoma | SK-MEL-28 melanoma | SK-MEL-5 melanoma | SK-OV-3 ovarian | SN12C renal | SNB-19 CNS | SNB-75 CNS | SR leukemia | SW-620 colon | T-47D breast | TK-10 renal | U251 CNS | UACC-257 melanoma | UO-31 renal
